The inhibition is the change of the read-out against control, counted positive when it falls.

In test [1] the test system is A431 squamous carcinoma cells. As to the kind of experiment: Comparative cytotoxic effects of free and conjugated daunomycin, Trypan Blue exclusion. Format: cell-based, human. The conditions noted are these: A431, 1 μg/ml daunomycin or equivalent in conjugate, 48 hours. How it is done:
All cells were maintained in Dulbecco's Modified Medium (DMEM), 10 percent foetal calf serum (FSC) (GIBCO), 2 percent penicillin-streptomycin (Gibco) and 1 percent fungizone (GIBCO) in 5 percent CO2. They were plated at 50 to 60 percent confluence 24 hours before the addition of the toxin. […] Four volumes of 0.2 percent (w/v) Trypan Blue in water was freshly mixed with 1 volume of a saline solution 4.25 percent (w/v) of NaCl in water. One volume of this solution was mixed with 1 volume of PBS on the cell monolayer or to 1 volume of cell suspension in PBS. Observation and scoring took place 48 hours after addition of the toxin (see FIG. 2a and 2b).

The subject of test [2] is mixed culture of A431 and WI38 cells. As to the kind of experiment: Effect on mixed cultures of tumor (A431) and normal (WI38) cells. The test is classed as cell-based. The conditions noted are these: 0.1 μg/ml (or equivalent free daunomycin), after 15 days. The protocol: Cells were maintained as described in Example 4. The WI38 fibroblasts were first plated and the A431 squamous carcinoma cells were plated the next day. […]

The subject of another test is A431 malignant cells. Kind of test: Inhibition of cellular protein synthesis (35S methionine incorporation), A431. The test is classed as cell-based. The settings on record: Homo sapiens, A-431, 48 h, read-out: % of protein Synthesis Inhibition. How it is done:
(§1) The effect of these drugs was evaluated by the degree of inhibition of cellular protein synthesis. For this, we measured the level of incorporation of 35S methionine NEN) into newly synthesized proteins after a 48 hrs exposure to different concentrations of the drugs.
(§2) Cells were plated on 1.5 cm Petri dishes at 50 percent to 60 percent of confluence before the addition of the toxin. […] Cell death consecutive to this addition was measured as follows: the cells were exposed for 1 hour at 37° C. in 500 μl DMEM low methionine medium (GIBCO) containing radioactive ^35 S met. The medium was then removed and the dishes were washed with PBS 9137 mM NaCl, […], […], 8.1 mM Na2 HPO4, 1.5 mM KH2 PO4, 0.9 mM CaCl2, 0.5 mM MgCl2, pH 7.2). These solutions were stored for beta counting. The cells were lysed with 1 ml 0.1 N NaOH and placed in a tube with 500 μl Trichloroacetic acid (TCA) 10 percent to precipitate the proteins. This mixture was filtered on GF/A filters (Whatman) to eliminate unreacted ^35 S-met. The filters were washed twice with 1 ml of 10 percent TCA and once with 100 percent ethanol. The filters were dried at 80° C. for 2 hours and subjected to beta counting in Econofluor (NEN) scintillation medium.

For the next test, the system named is WI38 (control) cells. As to the kind of experiment: Inhibition of cellular protein synthesis (35S methionine incorporation), WI38. The settings on record: Homo sapiens, WI-38, 48 h. The test is classed as cell-based. How it is done:
as §1, §2

In test [3] the test system is A431 tumors. Kind of test: In vivo test of Conjugate VIII, A431 tumors in nude mice. The conditions noted are these: for Initial Surface of the Tumor (A): before treatment; for Final Surface of the tumor (B): a week after last injection; for Tumor weight: tumors dissected at end of experiment. The protocol:
In the prior art, up to 10 mg/kg doses have been used in mice (S. Schwarz, et al., 1975, Cancer Chem. Rep., 6, 2, 107-114). The drug was injected either directly in the tumor or in the caudal vein 4 times at 3 days intervals. The measures were taken a week after the last injection.

The test system of test [4] is A431 tumors. Kind of test: In vivo test of Conjugate IX, A431 tumors in nude mice. The conditions noted are these: 2 mg/kg daunomycin every 3 days over 9 days, caudal vein. The text has this:
The in vivo tests reported in Example 8 were repeated using Conjugate IX.

Test [5] deals with A431 squamous carcinoma cells. Kind of test: Internalization of 125I-labelled EGF and Conjugate VIII in A431 cells. The test is classed as cell-based, human. The conditions noted are these: A431, 6 hrs at 37° C. How it is done:
(§3) The Conjugate VIII, radiolabeled with ^125 I on the EGF, was incubated with confluent cell cultures of A431 and WI38 cells for 6 hrs at 37° C. in solution A (4 parts DMEM and 1 part of 50 mM Tris, 100 mM NaCl and 0.1 percent BSA adjusted to pH 7.4). The cells were then washed four times with ice-cold PBS+1 mM CaCl2 and 1 mM MgCl2. Fifty percent trichloroacetic acid was added in a proportion of 1:5 to the pooled solution A and PBS, and the mixture was counted on a gamma counter. The cell membrane was destablized by treatment on ice with 200 mM acetic acid and 150 mM NaCl (solution B) for 6 minutes. The solution B was then removed and the cells washed twice with solution B. These pooled B solutions were assayed for ^125 I. This treatment releases the […] to the cell surface. The cells were then completely dissolved in 0.2 N NaOH. The radioactivity found there represented the internalized Conjugate VIII. In control experiments, using free EGF ^125 I, a proportion of the EGF is recycled to the medium, therefore lowering the intracellular EGF. The results on the internalization of ^125 I labelled EGF and Conjugate VIII in WI38 and A431 cell cultures are given in the following Table in terms of counts per min (background 30 cpm) for successively: EGF not integrated in the cell, EGF bound to the membrane, and EGF in the intra-cellular compartment. The percent of total cpm is given in brackets.

A further test deals with WI38 fibroblasts. Kind of test: Internalization of 125I-labelled EGF and Conjugate VIII in WI38 cells. Format: cell-based. The settings on record: WI38, 6 hrs at 37° C. The protocol: as §3
Where [6] appears, read: I.T., 0.1 mg/kg daunomycin 4 times at 3 days intervals.

Take `COc1cccc2c1C(=O)c1c(O)c3c(c(O)c1C2=O)C[C@@](O)(C(C)=O)C[C@@H]3O[C@H]1C[C@H](N)[C@H](O)[C@H](C)O1` [Daunomycin, daunomycin]: the “Cell death by Trypan Blue exclusion” value in test [1] is recorded as “Exclusion of the dye from the cells demonstrates the viability thereof”. Also, the “Cells remaining in mixed culture” value in test [2] is “all cells, malignant and normal, had died after 15 days”. Also, the inhibition at 0.1 µg/mL with A431 malignant cells came out at 30%; with WI38 (control) cells it was 10%. The results for the inhibition at 0.5 µg/mL in the test on A431 malignant cells and with WI38 (control) cells were 68% and 46%, respectively. Besides, the inhibition at 1 µg/mL came to 97% with A431 malignant cells and 80% in the test with WI38 (control) cells. Also, the “Initial Surface of the Tumor (A)” value amounted to 9 with A431 tumors [3] (I.T. (intratumor)) and 30.5 in the test on A431 tumors [3] (I.V. (caudal vein)). The “Growth coefficient (B/A)” value with A431 tumors [3] (setting [6]) came out at 18.7. Moreover, the “Final Surface of the tumor (B)” value with A431 tumors [3] (setting [6]) came out at 170; in the test on A431 tumors [3] (I.V., 0.1 mg/kg daunomycin 4 times at 3 days intervals), 500. In addition, the Tumor weight with A431 tumors [3] (I.T.) was 1.178 g; with A431 tumors [3] (I.V.) it was 6.789 g. Moreover, the Tumor diameter with A431 tumors [4] (day 0) came out at 10 mm; in the test with A431 tumors [4] (day 4) it was 12 mm; in the test with A431 tumors [4] (day 7), 15 mm; with A431 tumors [4] (day 11), 20 mm; in the test on A431 tumors [4] (day 14), 21 mm.

Consider “EGF: Epidermal Growth Factor, a single polypeptide of 53 amino acids (SIGMA)”, for which the “Intracellular, percent of total cpm” value was 14% in test [5] and 7% with WI38 fibroblasts. In addition, in test [5], the “Membrane, percent of total cpm” value is given as 0%. The figures for the “Unbound, percent of total cpm” value (in test [5]; in the test with WI38 fibroblasts) were 86% and 93%, respectively. Also, the results for the Intracellular (in test [5] (background 30 cpm); with WI38 fibroblasts (background 30 cpm)) were 111 cpm and 67 cpm, respectively. Besides, the Membrane in test [5] (background 30 cpm) worked out at 31 cpm. In addition, the results for the “Unbound (EGF not integrated in the cell)” value (in test [5] (background 30 cpm); in the test on WI38 fibroblasts (background 30 cpm)) were 536 cpm and 530 cpm, respectively. The “Membrane bound, percent of total cpm” value with WI38 fibroblasts came to 0%. Also, the Membrane bound in the test on WI38 fibroblasts (background 30 cpm) is 29 cpm. Besides, the Tumor diameter in the test on A431 tumors [4] (day 0) stood at 10 mm; with A431 tumors [4] (day 4), 13 mm; in the test on A431 tumors [4] (day 7) it was 14 mm; in the test with A431 tumors [4] (day 11), 17 mm; in the test on A431 tumors [4] (day 14), 17 mm.

These data come from patent publication US5087616A, “Cytotoxic drug conjugates and their delivery to tumor cells” (Battelle Memorial Institute, priority 1986, dated 1992).
